From patent publication US11572402B2, “Method for promoting diversification of antibody variable region” (Chiome Bioscience Inc., priority 2017, dated 2023) come the findings set out here.

The test system of the assay is CL18_M− cell line. Description: Light chain gene conversion (GC) analysis according to Reversion assay. To be noted: one and two weeks of culture, PI3Kα Inhibitor 2 at 200 nM, versus CAL-101, CZC 24832, AS 604850 and CS(−). In kind it is cell-based, chicken. The method, then: A frozen stock of the CL18_M− cell line (3.0×10^6 cells) was awaken with 10 mL of CS(−) medium, using a 25 cm^2 Flask, and the cells were then cultured in a CO2 incubator (39.5° C., 5% CO2). On the following day, 2 mL each of a CS(−) medium, to which each drug had been added, was added into each well of a 24 deep well plate (ThermoFisher Scientific, 95040480), and the cells were then seeded thereon to a cell density of 6.0×10^4 cells/mL (wherein the cell concentration and the survival rate were measured using CASY cell counter). After individual samples had been cultured for 2 days, the samples were subcultured under the same conditions to result in a cell density of 1.0×10^4 cells/mL. […] Thereafter, a plot, in which the vertical axis indicated FITC (Goat anti-Chicken IgM Antibody FITC Conjugated) and the longitudinal axis indicated PE (none), was developed, and the percentage of PE-_FITC+(cIgM+) cells was then calculated.
Meanwhile, after completion of the culture for 7 days, individual samples were subcultured under the same conditions to result in a cell density of 6.0×10^4 cells/mL. […] At the time point of Day 14 of the culture, individual samples were measured using FACS Canto II Flow Cytometer, as with the measurement on Day 7. […]

Take `Cc1nc(NC(=O)N2CCC[C@H]2C(N)=O)sc1-c1csc(C(C)(C)C)n1` [A66]: the “Reversion activity (percentage of IgM expression-positive cells)” value is “higher Reversion activity”.
